The target in assay [1] is Delta-type opioid receptor (Homo sapiens, UniProt P41143).
The target in assay [2] is Kappa-type opioid receptor (Homo sapiens, UniProt P41145).
The target of a further assay is Mu-type opioid receptor (Homo sapiens, UniProt P35372).

Each structure is given as a SMILES string. Some results are limits rather than exact numbers.

Chain of Mu-type opioid receptor (P35372 whole entry): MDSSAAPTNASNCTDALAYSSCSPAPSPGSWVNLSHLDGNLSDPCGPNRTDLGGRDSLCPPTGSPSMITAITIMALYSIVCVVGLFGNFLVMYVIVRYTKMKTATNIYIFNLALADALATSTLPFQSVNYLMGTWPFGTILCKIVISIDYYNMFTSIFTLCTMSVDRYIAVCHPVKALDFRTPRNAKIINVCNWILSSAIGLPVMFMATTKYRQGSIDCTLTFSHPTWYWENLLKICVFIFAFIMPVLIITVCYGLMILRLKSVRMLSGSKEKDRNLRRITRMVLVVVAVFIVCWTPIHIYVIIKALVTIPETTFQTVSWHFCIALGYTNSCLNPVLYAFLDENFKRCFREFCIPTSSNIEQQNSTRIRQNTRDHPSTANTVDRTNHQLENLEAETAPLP
Chain of Kappa-type opioid receptor (P41145 whole entry): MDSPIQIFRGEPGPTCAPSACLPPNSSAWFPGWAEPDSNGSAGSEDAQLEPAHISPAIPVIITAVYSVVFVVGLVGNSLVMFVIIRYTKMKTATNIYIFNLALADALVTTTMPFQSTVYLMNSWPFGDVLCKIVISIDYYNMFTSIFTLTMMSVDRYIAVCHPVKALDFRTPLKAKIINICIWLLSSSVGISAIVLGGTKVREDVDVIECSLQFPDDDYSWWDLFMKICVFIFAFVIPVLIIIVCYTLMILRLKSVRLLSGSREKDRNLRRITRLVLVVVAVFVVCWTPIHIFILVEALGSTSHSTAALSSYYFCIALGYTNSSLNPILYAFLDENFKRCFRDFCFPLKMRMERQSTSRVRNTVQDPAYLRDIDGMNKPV
Chain of Delta-type opioid receptor (P41143 whole entry): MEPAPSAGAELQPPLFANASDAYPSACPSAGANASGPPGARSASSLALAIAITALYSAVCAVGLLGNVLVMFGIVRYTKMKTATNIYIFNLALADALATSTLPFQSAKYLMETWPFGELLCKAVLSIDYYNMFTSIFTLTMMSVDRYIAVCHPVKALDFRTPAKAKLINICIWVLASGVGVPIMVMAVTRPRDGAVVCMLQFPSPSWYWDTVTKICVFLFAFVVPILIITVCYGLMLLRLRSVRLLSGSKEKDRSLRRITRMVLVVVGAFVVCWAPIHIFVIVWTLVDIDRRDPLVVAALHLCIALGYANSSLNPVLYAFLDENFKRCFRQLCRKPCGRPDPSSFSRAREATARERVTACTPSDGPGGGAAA

Consider `CC(=O)N[C@@H](CCCN=C(N)N)C(=O)N[C@H](CC1CCCCC1)C(=O)N[C@H]1CC[C@@H]2SC[C@@H](C(=O)N[C@H](CCCN=C(N)N)C(=O)N[C@H](Cc3ccc(Cl)cc3)C(N)=O)N2C1=O` [NOCICEPTIN RECEPTOR ANTAGONIST PEPTIDE III-BTD], for which the Ki worked out at 60.3 nM in assay [1], 11.5 nM in assay [2] and 8.91 nM on Mu-type opioid receptor.
The matching figures for `C[C@H](NC(=O)CNC(=O)[C@@H](NC(=O)[C@H](Cc1ccccc1)NC(=O)CNC(=O)CNC(=O)CNCc1ccccc1)[C@@H](C)O)C(=O)N[C@@H](CCCN=C(N)N)C(=O)N[C@@H](CCCCN)C(=O)N[C@@H](CO)C(=O)N[C@@H](C)C(=O)N[C@@H](CCCN=C(N)N)C(=O)N[C@@H](CCCCN)C(N)=O` [H-PHE-(R)-GLY-GLY-PHE-THR-GLY-ALA-ARG-LYS-SER-ALA-ARG-LYS-NH2]: above 10000 nM, 1100 nM and above 10000 nM.

In general, Ki refers to a dissociation constant, usually derived from enzyme kinetics or from competition with a known ligand. Low readings indicate higher affinity, high ones lower affinity.

Source of the values: BindingDB's records for doi:10.1007/s002100000327 (Leicester Royal Infirmary, 2001).
